Literature values as cited in patent US20130312498A1, “CARDIOVASCULAR DISEASE RISK ASSESSMENT AND TREATMENT BY STEROL AND/OR STANOL MARKERS” (FOUNDATION FOR HEALTH IMPROVEMENT AND TECHNOLOGY, priority 2012, published 2013).

Experiments:
[1] = molecular target: T1, NPC1L1/AP2-clathrin complex (Homo sapiens, UniProt Q9UHC9); settings: typical effect, intestinal sterol absorption
T1 construct: from tissue; host or cells: intestinal epithelium (in vivo, patients)
T1 sequence (Q9UHC9 22-1359): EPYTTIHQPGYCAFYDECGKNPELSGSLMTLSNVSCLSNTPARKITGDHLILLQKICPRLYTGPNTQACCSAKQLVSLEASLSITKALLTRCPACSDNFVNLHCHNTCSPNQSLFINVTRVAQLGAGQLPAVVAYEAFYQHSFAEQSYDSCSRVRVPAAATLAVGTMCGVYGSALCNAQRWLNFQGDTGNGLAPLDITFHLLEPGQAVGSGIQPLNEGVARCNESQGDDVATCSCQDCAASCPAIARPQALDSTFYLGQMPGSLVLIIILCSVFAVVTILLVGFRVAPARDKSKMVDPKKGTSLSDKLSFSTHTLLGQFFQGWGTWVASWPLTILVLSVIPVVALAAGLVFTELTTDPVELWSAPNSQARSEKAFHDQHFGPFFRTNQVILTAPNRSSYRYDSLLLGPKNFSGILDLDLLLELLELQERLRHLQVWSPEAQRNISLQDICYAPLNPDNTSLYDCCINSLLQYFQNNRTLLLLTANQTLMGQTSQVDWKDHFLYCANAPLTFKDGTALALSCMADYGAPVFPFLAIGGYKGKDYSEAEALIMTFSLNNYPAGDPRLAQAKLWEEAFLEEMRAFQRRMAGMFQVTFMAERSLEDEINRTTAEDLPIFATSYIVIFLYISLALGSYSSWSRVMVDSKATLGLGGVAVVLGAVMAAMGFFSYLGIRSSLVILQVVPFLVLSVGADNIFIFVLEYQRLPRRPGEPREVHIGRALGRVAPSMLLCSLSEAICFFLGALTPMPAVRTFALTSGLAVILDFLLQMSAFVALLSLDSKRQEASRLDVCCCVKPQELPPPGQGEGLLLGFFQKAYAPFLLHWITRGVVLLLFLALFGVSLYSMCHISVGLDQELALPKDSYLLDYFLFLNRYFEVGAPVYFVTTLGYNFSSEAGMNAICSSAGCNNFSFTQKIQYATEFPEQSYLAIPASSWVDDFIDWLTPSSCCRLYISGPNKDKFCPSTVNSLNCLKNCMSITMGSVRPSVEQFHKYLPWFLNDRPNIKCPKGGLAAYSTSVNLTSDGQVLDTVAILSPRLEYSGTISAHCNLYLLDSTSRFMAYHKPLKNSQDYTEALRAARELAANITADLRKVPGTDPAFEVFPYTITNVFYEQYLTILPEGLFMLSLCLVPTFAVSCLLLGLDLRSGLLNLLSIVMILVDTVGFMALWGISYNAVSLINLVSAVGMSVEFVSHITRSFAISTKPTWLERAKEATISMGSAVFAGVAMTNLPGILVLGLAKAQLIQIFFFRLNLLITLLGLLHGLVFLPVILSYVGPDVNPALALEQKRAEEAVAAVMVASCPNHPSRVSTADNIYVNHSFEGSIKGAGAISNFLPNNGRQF

fatty acid absorption = settings: in vivo

reduction of sterol absorption [1]: about 50%
SMILES: O=C1[C@H](CC[C@H](O)c2ccc(F)cc2)[C@@H](c2ccc(O)cc2)N1c1ccc(F)cc1 [Ezetimibe]
effect on fatty acid absorption (fatty acid absorption): no effect
